The supplement of paper PMC10627819

How the values were obtained:
B. subtilis 168 [1] = experiment: fitness (endpoint OD595 vs no drug) (fraction); higher = more growth
Procedure, shortened: (§1)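 In 384-well plates at 37 °C, cultures began at OD595 0.01 in 30 µl, with 55 µl used for S. pneumoniae. OD595 readings every 30 min for 14 h were corrected by the first reading. Fitness divides the stationary-phase transition optical density by the robust mean of no-drug control wells. The result is capped at 1.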

S. aureus DSM 20231 [2] = experiment: as above
Procedure, shortened: as §1

S. aureus Newman [3] = experiment: as above
Procedure, shortened: as §1

S. pneumoniae D39V [4] = experiment: as above
Procedure, shortened: as §1

B. subtilis 168 [5] = experiment: Bliss interaction score (quartile over a dose matrix) (fitness difference); higher = more antagonism (negative = synergy)
Procedure, shortened: (§2)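 OD595 was read at entry into stationary phase and expressed relative to the robust mean of the no-drug wells on the same plate, capped at 1. The resulting ratio is the fitness value. The Bliss score, observed fitness minus product-based expected fitness with single-drug fitness inferred from combinations, is summarised by quartiles over technical, biological and donor/recipient replicates.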

S. aureus DSM 20231 [6] = experiment: as above
Procedure, shortened: as §2

S. aureus Newman [7] = experiment: as above
Procedure, shortened: as §2

S. pneumoniae D39V [8] = experiment: as above
Procedure, shortened: as §2
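For Bliss interaction score (quartile over a dose matrix) in this document: first quartile when negative (synergy) and third quartile when positive (antagonism).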

CO/N=C(\C(=O)N[C@@H]1C(=O)N2C(C(=O)O)=C(COC(C)=O)CS[C@H]12)c1csc(N)n1 [Cefotaxime] + COc1cccc2c1C(=O)c1c(O)c3c(c(O)c1C2=O)C[C@@](O)(C(=O)CO)C[C@@H]3O[C@H]1C[C@H](N)[C@H](O)[C@H](C)O1 [Doxorubicin]
fitness, one replicate
Details | first compound 0.00775 µg/mL | first compound 0.0155 µg/mL | first compound 0.031 µg/mL | first compound 0.0625 µg/mL | first compound 0.125 µg/mL | first compound 0.25 µg/mL | first compound 0.625 µg/mL | first compound 1.25 µg/mL | first compound 2.5 µg/mL
B. subtilis 168 [1], partner 0.625 µg/mL | 0.844 | 0.659 | 0.476 | 0.382 | 0.227 | 0.187 | – | – | –
B. subtilis 168 [1], partner 1.25 µg/mL | 0.771 | 0.571 | 0.371 | 0.337 | 0.232 | 0.196 | – | – | –
B. subtilis 168 [1], partner 2.5 µg/mL | 0.35 | 0.0312 | 0.0055 | 0.0527 | 0.048 | 0.0308 | – | – | –
S. aureus Newman [3], partner 0.625 µg/mL | – | – | – | – | – | – | 0.0853 | 0.0304 | 0.0624
S. aureus Newman [3], partner 1.25 µg/mL | – | – | – | – | – | – | 0.0701 | 0.0126 | 0.0183
S. aureus Newman [3], partner 2.5 µg/mL | – | – | – | – | – | – | 0.0451 | 0 | 0.0123

Details | fitness
B. subtilis 168 [1], first compound 0.5 µg/mL, partner 0.625 µg/mL | 0.183
B. subtilis 168 [1], first compound 0.5 µg/mL, partner 1.25 µg/mL | 0.16
B. subtilis 168 [1], first compound 0.5 µg/mL, partner 2.5 µg/mL | 0.0662
B. subtilis 168 [1], first compound 1 µg/mL, partner 0.625 µg/mL | 0.106
B. subtilis 168 [1], first compound 1 µg/mL, partner 1.25 µg/mL | 0.0654
B. subtilis 168 [1], first compound 1 µg/mL, partner 2.5 µg/mL | 0.0366
B. subtilis 168 [1], first compound 2 µg/mL, partner 0.625 µg/mL | 0.0861
B. subtilis 168 [1], first compound 2 µg/mL, partner 1.25 µg/mL | 0.0715
B. subtilis 168 [1], first compound 2 µg/mL, partner 2.5 µg/mL | 0.0755
S. aureus DSM 20231 [2], first compound 0.039 µg/mL, partner 0.625 µg/mL | 0.717
S. aureus DSM 20231 [2], first compound 0.039 µg/mL, partner 1.25 µg/mL | 0.707
S. aureus DSM 20231 [2], first compound 0.039 µg/mL, partner 2.5 µg/mL | 0.633
S. aureus DSM 20231 [2], first compound 0.078 µg/mL, partner 0.625 µg/mL | 0.67
S. aureus DSM 20231 [2], first compound 0.078 µg/mL, partner 1.25 µg/mL | 0.67
S. aureus DSM 20231 [2], first compound 0.078 µg/mL, partner 2.5 µg/mL | 0.589
S. aureus DSM 20231 [2], first compound 0.156 µg/mL, partner 0.625 µg/mL | 0.602
S. aureus DSM 20231 [2], first compound 0.156 µg/mL, partner 1.25 µg/mL | 0.613
S. aureus DSM 20231 [2], first compound 0.156 µg/mL, partner 2.5 µg/mL | 0.583
S. aureus DSM 20231 [2], first compound 0.312 µg/mL, partner 0.625 µg/mL | 0.537
S. aureus DSM 20231 [2], first compound 0.312 µg/mL, partner 1.25 µg/mL | 0.61
S. aureus DSM 20231 [2], first compound 0.312 µg/mL, partner 2.5 µg/mL | 0.572
S. aureus Newman [3], first compound 0.078 µg/mL, partner 0.625 µg/mL | 0.613
S. aureus Newman [3], first compound 0.078 µg/mL, partner 1.25 µg/mL | 0.68
S. aureus Newman [3], first compound 0.078 µg/mL, partner 2.5 µg/mL | 0.663
S. aureus Newman [3], first compound 0.156 µg/mL, partner 0.625 µg/mL | 0.563
S. aureus Newman [3], first compound 0.156 µg/mL, partner 1.25 µg/mL | 0.592
S. aureus Newman [3], first compound 0.156 µg/mL, partner 2.5 µg/mL | 0.618
S. aureus Newman [3], first compound 0.312 µg/mL, partner 0.625 µg/mL | 0.458
S. aureus Newman [3], first compound 0.312 µg/mL, partner 1.25 µg/mL | 0.45
S. aureus Newman [3], first compound 0.312 µg/mL, partner 2.5 µg/mL | 0.408
S. pneumoniae D39V [4], first compound 0.0018 µg/mL, partner 0.25 µg/mL | 0.944
S. pneumoniae D39V [4], first compound 0.0018 µg/mL, partner 0.5 µg/mL | 0.963
S. pneumoniae D39V [4], first compound 0.0018 µg/mL, partner 1 µg/mL | 0.863
S. pneumoniae D39V [4], first compound 0.0035 µg/mL, partner 0.25 µg/mL | 0.929
S. pneumoniae D39V [4], first compound 0.0035 µg/mL, partner 0.5 µg/mL | 0.944
S. pneumoniae D39V [4], first compound 0.0035 µg/mL, partner 1 µg/mL | 0.831
S. pneumoniae D39V [4], first compound 0.007 µg/mL, partner 1 µg/mL | 0.731

Details | Bliss interaction score
B. subtilis 168 [5] | -0.17
S. aureus DSM 20231 [6] | -0.086
S. aureus Newman [7] | 0.0946
S. pneumoniae D39V [8] | 0.0436

C[C@@H]1O[C@@H]1P(=O)(O)O [Fosfomycin] + COc1ccc(C[C@H](N)C(=O)N[C@H]2[C@@H](O)[C@H](n3cnc4c(N(C)C)ncnc43)O[C@@H]2CO)cc1 [Puromycin]
fitness
Details | partner 0.39 µg/mL | partner 0.78 µg/mL | partner 1 µg/mL | partner 1.56 µg/mL | partner 2 µg/mL
B. subtilis 168 [1], first compound 1.562 µg/mL | 0.694 | 0.712 | – | 0.672 | –
B. subtilis 168 [1], first compound 3.124 µg/mL | 0.65 | 0.562 | – | 0.583 | –
B. subtilis 168 [1], first compound 6.248 µg/mL | 0.407 | 0.354 | – | 0.378 | –
S. aureus DSM 20231 [2], first compound 0.781 µg/mL | 0.799 | 0.776 | – | 0.829 | –
S. aureus DSM 20231 [2], first compound 1.562 µg/mL | 0.631 | 0.662 | – | 0.632 | –
S. aureus DSM 20231 [2], first compound 3.124 µg/mL | 0.491 | 0.541 | – | 0.514 | –
S. aureus Newman [3], first compound 0.781 µg/mL | 0.55 | 0.579 | – | 0.612 | –
S. aureus Newman [3], first compound 1.562 µg/mL | 0.463 | 0.495 | – | 0.516 | –
S. aureus Newman [3], first compound 3.124 µg/mL | 0.134 | 0.149 | – | 0.108 | –
S. pneumoniae D39V [4], first compound 1.25 µg/mL | – | – | 0.974 | – | 0.916
S. pneumoniae D39V [4], first compound 2.5 µg/mL | – | – | 0.982 | – | 0.89
S. pneumoniae D39V [4], first compound 5 µg/mL | – | – | 0.902 | – | 0.898

fitness, S. aureus DSM 20231 [2], one replicate
Details | first compound 0.781 µg/mL | first compound 1.562 µg/mL | first compound 3.124 µg/mL
partner 3.12 µg/mL | 0.828 | 0.733 | 0.611
partner 6.24 µg/mL | 0.707 | 0.488 | 0.329

Details | Bliss interaction score
B. subtilis 168 [5] | 0.0393
S. aureus DSM 20231 [6] | 0.047
S. aureus Newman [7] | -0.0684
S. pneumoniae D39V [8] | 0.116

COc1cccc2c1C(=O)c1c(O)c3c(c(O)c1C2=O)C[C@@](O)(C(=O)CO)C[C@@H]3O[C@H]1C[C@H](N)[C@H](O)[C@H](C)O1 [Doxorubicin] + C[C@@H]1O[C@@H]1P(=O)(O)O [Fosfomycin]
Details | fitness
B. subtilis 168 [1], first compound 0.625 µg/mL, partner 1.562 µg/mL | 0.7
B. subtilis 168 [1], first compound 0.625 µg/mL, partner 3.124 µg/mL | 0.605
B. subtilis 168 [1], first compound 0.625 µg/mL, partner 6.248 µg/mL | 0.412
B. subtilis 168 [1], first compound 1.25 µg/mL, partner 1.562 µg/mL | 0.655
B. subtilis 168 [1], first compound 1.25 µg/mL, partner 3.124 µg/mL | 0.518
B. subtilis 168 [1], first compound 1.25 µg/mL, partner 6.248 µg/mL | 0.302
B. subtilis 168 [1], first compound 2.5 µg/mL, partner 1.562 µg/mL | 0.369
B. subtilis 168 [1], first compound 2.5 µg/mL, partner 6.248 µg/mL | 0.0432
S. aureus DSM 20231 [2], first compound 0.625 µg/mL, partner 0.781 µg/mL | 0.685
S. aureus DSM 20231 [2], first compound 0.625 µg/mL, partner 1.562 µg/mL | 0.587
S. aureus DSM 20231 [2], first compound 0.625 µg/mL, partner 3.124 µg/mL | 0.5
S. aureus DSM 20231 [2], first compound 1.25 µg/mL, partner 0.781 µg/mL | 0.681
S. aureus DSM 20231 [2], first compound 1.25 µg/mL, partner 1.562 µg/mL | 0.603
S. aureus DSM 20231 [2], first compound 1.25 µg/mL, partner 3.124 µg/mL | 0.493
S. aureus DSM 20231 [2], first compound 2.5 µg/mL, partner 0.781 µg/mL | 0.637
S. aureus DSM 20231 [2], first compound 2.5 µg/mL, partner 1.562 µg/mL | 0.506
S. aureus DSM 20231 [2], first compound 2.5 µg/mL, partner 3.124 µg/mL | 0.449
S. aureus Newman [3], first compound 0.625 µg/mL, partner 0.781 µg/mL | 0.615
S. aureus Newman [3], first compound 0.625 µg/mL, partner 1.562 µg/mL | 0.547
S. aureus Newman [3], first compound 0.625 µg/mL, partner 3.124 µg/mL | 0.212
S. aureus Newman [3], first compound 1.25 µg/mL, partner 0.781 µg/mL | 0.618
S. aureus Newman [3], first compound 1.25 µg/mL, partner 1.562 µg/mL | 0.535
S. aureus Newman [3], first compound 1.25 µg/mL, partner 3.124 µg/mL | 0.138
S. aureus Newman [3], first compound 2.5 µg/mL, partner 0.781 µg/mL | 0.595
S. aureus Newman [3], first compound 2.5 µg/mL, partner 1.562 µg/mL | 0.443
S. aureus Newman [3], first compound 2.5 µg/mL, partner 3.124 µg/mL | 0.0485
S. pneumoniae D39V [4], first compound 0.25 µg/mL, partner 1.25 µg/mL | 0.881
S. pneumoniae D39V [4], first compound 0.25 µg/mL, partner 2.5 µg/mL | 0.852
S. pneumoniae D39V [4], first compound 0.25 µg/mL, partner 5 µg/mL | 0.635
S. pneumoniae D39V [4], first compound 0.5 µg/mL, partner 1.25 µg/mL | 0.938
S. pneumoniae D39V [4], first compound 0.5 µg/mL, partner 2.5 µg/mL | 0.859
S. pneumoniae D39V [4], first compound 0.5 µg/mL, partner 5 µg/mL | 0.646
S. pneumoniae D39V [4], first compound 1 µg/mL, partner 1.25 µg/mL | 0.861
S. pneumoniae D39V [4], first compound 1 µg/mL, partner 2.5 µg/mL | 0.823
S. pneumoniae D39V [4], first compound 1 µg/mL, partner 5 µg/mL | 0.669

Details | Bliss interaction score
B. subtilis 168 [5] | -0.142
S. aureus DSM 20231 [6] | 0.0338
S. aureus Newman [7] | 0.122
S. pneumoniae D39V [8] | -0.0488
